# According to paper PMC3119665, “A New Drug Design Targeting the Adenosinergic System for Huntington's Disease” (PLoS ONE, 2011):
# What was measured:
# [1] = target: T1, G Protein-Coupled Receptor, GPR103 (Homo sapiens, UniProt Q96P65); assay: Radioligand binding panel (Table S1); details: 10 μM T1-11, n 2
# T1 construct: purchased MDS Pharma Services Taiwan
# [2] = system: Androgen (Testosterone); assay: Radioligand binding panel (Table S1); parameters: species or system human; details: 10 μM T1-11, n 2
# [3] = target: T2, Galanin GAL1 (Homo sapiens, UniProt P47211); assay: Radioligand binding panel (Table S1); details: 10 μM T1-11, n 2
# T2 construct: purchased MDS Pharma Services Taiwan
# [4] = target: T3, Bombesin BB2 (Homo sapiens, UniProt P30550); assay: Radioligand binding panel (Table S1); details: 10 μM T1-11, n 2
# T3 construct: purchased MDS Pharma Services Taiwan
# [5] = target: T4, Benzodiazepine, Peripheral (Rattus norvegicus, UniProt P16257); assay: Radioligand binding panel (Table S1); details: 10 μM T1-11, n 2
# T4 construct: purchased MDS Pharma Services Taiwan
# [6] = system: Glutamate, NMDA, Agonism; assay: Radioligand binding panel (Table S1); parameters: species or system rat; details: 10 μM T1-11, n 2
# [7] = target: T5, Chemokine CCR4 (Homo sapiens, UniProt P51679); assay: Radioligand binding panel (Table S1); details: 10 μM T1-11, n 2
# T5 construct: purchased MDS Pharma Services Taiwan
# [8] = target: T6, Adrenergic α 2A (Homo sapiens, UniProt P08913); assay: Radioligand binding panel (Table S1); details: 10 μM T1-11, n 2
# T6 construct: purchased MDS Pharma Services Taiwan
# [9] = system: Phosphodiesterase PDE4; assay: Radioligand binding panel (Table S1); parameters: species or system human; details: 10 μM T1-11, n 2
# [10] = target: T7, Serotonin (5-Hydroxytryptamine) 5-HT3 (Homo sapiens, UniProt P46098); assay: Radioligand binding panel (Table S1); details: 10 μM T1-11, n 2
# T7 construct: purchased MDS Pharma Services Taiwan
# [11] = target: T8, Prostanoid, Thromboxane A2 (TP) (Homo sapiens, UniProt P21731); assay: Radioligand binding panel (Table S1); details: 10 μM T1-11, n 2
# T8 construct: purchased MDS Pharma Services Taiwan
# [12] = target: T9, Serotonin (5-Hydroxytryptamine) 5-HT1B (Rattus norvegicus, UniProt P28564); assay: Radioligand binding panel (Table S1); details: 10 μM T1-11, n 2
# T9 construct: purchased MDS Pharma Services Taiwan
# [13] = system: Potassium Channel [SKCA]; assay: Radioligand binding panel (Table S1); parameters: species or system rat; details: 10 μM T1-11, n 2
# [14] = target: T10, Histamine H3 (Homo sapiens, UniProt Q9Y5N1); assay: Radioligand binding panel (Table S1); details: 10 μM T1-11, n 2
# T10 construct: purchased MDS Pharma Services Taiwan
# [15] = target: T11, Bombesin BB1 (Homo sapiens, UniProt P28336); assay: Radioligand binding panel (Table S1); details: 10 μM T1-11, n 2
# T11 construct: purchased MDS Pharma Services Taiwan
# [16] = system: PC12 cells; assay: Annexin V-FITC staining, serum-deprived PC12 cells; format: cell-based, rat; details: T1-11 10 µM, 24 h
# Procedure: An annexin V (FITC-conjugated) apoptosis kit (K101-400; BioVision, Mountain View, CA, USA) was used to analyze apoptotic cells. The experimental protocol followed the manufacturer's instructions and a previous article. In brief, after treatment with serum, serum-free medium, or serum-free medium plus T1-11 of the indicated concentration for 24 h, cells growing on 12-well plates at (3∼4)×10^5 cells/well were loaded with 0.5 ml binding buffer and 5 µl annexin V-FITC. After incubation for 5 min in the dark, cells were washed once with 1 ml of culture medium (without phenol red) for fluorescent imaging analyses (Axiovert-200M, Carl Zeiss, Gôttingen, Germany) or a flow cytometric analysis (Beckton Dickinson, Franklin Lakes, NJ, USA). Median values of the FITC fluorescent intensities were determined using an FL-1 channel (488/530Ex/Em nm). Five thousand live cells were analyzed per sample.
# [17] = target: T12, Neuromedin U NMU2 (Homo sapiens, UniProt Q9GZQ4); assay: Radioligand binding panel (Table S1); details: 10 μM T1-11, n 2
# T12 construct: purchased MDS Pharma Services Taiwan
# [18] = target: T13, Sigma σ2 (Rattus norvegicus, UniProt Q5U3Y7); assay: Radioligand binding panel (Table S1); details: 10 μM T1-11, n 2
# T13 construct: purchased MDS Pharma Services Taiwan
# [19] = system: Phosphodiesterase PDE1; assay: Radioligand binding panel (Table S1); parameters: species or system bovine; details: 10 μM T1-11, n 2
# [20] = target: T14, A2A adenosine receptor (Homo sapiens, UniProt P29274); assay: Radioligand binding assay
# T14 construct: host or cells: HEK293
# [21] = target: T15, Histamine H1 (Homo sapiens, UniProt P35367); assay: Radioligand binding panel (Table S1); details: 10 μM T1-11, n 2
# T15 construct: purchased MDS Pharma Services Taiwan
# [22] = system: GABAA, Chloride Channel, TBPS; assay: Radioligand binding panel (Table S1); parameters: species or system rat; details: 10 μM T1-11, n 2
# [23] = target: T16, human A3R (Homo sapiens, UniProt P0DMS8); assay: GTPγS binding assay; format: biochemical
# T16 construct: host or cells: CHO-K1
# Procedure: The GTPγS binding assay was conducted by MDS Pharma Services Taiwan using a previously described protocol with slight modifications. In brief, membrane proteins collected from Chinese hamster ovary (CHO-K1) cells expressing the human A3R (5∼10 µg per reaction) were incubated with the indicated drug and ^35S-GTPγS (0.1 nM) in a total volume of 500 µl for 30 min at 30°C. The reaction buffer was composed of 20 mM HEPES (pH 7.4), 100 mM NaCl, 10 mM MgCl2, 1 mM DTT, and 1 mM EDTA. The reaction was terminated by filtration over GF/B glass fibers and washed with the same reaction buffer. Relative GTPγS binding was defined as the percentage of ^35S-GTPγS binding when compared to that of a selective agonist of the A3R (2-Cl-IB-MECA, 3 µM) under the same binding conditions.
# Supplementary file pone.0020934.s004.tif: Figure S4 T1-11 binds to the A3 adenosine receptor (A3R) without evoking a significant binding of GTP. Membrane fractions collected from CHO-K1 cells expressing the human A3R were incubated with T1-11 at the indicated concentration and ^35S-GTPγS (0.1 nM) for 30 min at 30°C. Relative GTPγS binding was defined as the percentage of ^35S-GTPγS binding when compared with a selective agonist of the A3R (2-Cl-IB-MECA, 3 µM). (TIF) Click here for additional data file.
# [24] = target: T17, Tachykinin NK2 (Homo sapiens, UniProt P21452); assay: Radioligand binding panel (Table S1); details: 10 μM T1-11, n 2
# T17 construct: purchased MDS Pharma Services Taiwan
# [25] = target: T18, Growth Hormone, Secretagogue (GHS, Ghrelin) (Homo sapiens, UniProt Q92847); assay: Radioligand binding panel (Table S1); details: 10 μM T1-11, n 2
# T18 construct: purchased MDS Pharma Services Taiwan
# [26] = HEK293 membranes, 3H-CGS21680 50 nM
# T14 sequence (P29274 whole entry): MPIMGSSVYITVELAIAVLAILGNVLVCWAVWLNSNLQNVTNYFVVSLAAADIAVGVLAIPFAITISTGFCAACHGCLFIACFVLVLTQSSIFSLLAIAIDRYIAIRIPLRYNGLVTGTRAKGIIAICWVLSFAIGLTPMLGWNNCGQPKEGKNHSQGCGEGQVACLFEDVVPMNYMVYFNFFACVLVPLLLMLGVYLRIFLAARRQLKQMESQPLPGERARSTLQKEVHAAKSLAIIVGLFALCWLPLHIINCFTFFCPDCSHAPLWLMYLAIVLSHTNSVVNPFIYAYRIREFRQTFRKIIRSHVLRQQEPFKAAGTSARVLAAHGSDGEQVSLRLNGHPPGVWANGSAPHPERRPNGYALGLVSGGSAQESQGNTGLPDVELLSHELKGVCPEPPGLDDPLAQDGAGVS
# T16 sequence (P0DMS8 whole entry): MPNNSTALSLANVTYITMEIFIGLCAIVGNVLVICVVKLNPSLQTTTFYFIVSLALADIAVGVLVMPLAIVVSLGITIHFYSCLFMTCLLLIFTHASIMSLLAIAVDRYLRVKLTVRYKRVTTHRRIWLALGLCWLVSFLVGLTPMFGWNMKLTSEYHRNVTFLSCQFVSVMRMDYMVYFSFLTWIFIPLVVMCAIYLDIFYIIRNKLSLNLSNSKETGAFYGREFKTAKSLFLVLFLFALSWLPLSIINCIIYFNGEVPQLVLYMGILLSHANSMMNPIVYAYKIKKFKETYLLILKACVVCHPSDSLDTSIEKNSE
# T13 sequence (Q5U3Y7 whole entry): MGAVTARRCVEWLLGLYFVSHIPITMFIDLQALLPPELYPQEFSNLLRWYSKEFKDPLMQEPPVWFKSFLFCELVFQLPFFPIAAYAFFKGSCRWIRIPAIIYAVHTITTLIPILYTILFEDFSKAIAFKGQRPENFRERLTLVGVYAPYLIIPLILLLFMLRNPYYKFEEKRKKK
# T9 sequence (P28564 whole entry): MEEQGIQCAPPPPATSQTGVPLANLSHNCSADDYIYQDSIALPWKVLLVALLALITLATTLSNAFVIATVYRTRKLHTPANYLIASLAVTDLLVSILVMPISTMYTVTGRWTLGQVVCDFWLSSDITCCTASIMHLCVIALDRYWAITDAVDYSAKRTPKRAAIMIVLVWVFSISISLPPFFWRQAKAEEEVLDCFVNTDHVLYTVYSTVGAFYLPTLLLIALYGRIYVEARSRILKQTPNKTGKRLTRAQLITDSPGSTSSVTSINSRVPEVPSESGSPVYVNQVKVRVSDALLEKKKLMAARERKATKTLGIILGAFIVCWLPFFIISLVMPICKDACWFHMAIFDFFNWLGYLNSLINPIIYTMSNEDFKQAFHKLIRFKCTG
# T12 sequence (Q9GZQ4 whole entry): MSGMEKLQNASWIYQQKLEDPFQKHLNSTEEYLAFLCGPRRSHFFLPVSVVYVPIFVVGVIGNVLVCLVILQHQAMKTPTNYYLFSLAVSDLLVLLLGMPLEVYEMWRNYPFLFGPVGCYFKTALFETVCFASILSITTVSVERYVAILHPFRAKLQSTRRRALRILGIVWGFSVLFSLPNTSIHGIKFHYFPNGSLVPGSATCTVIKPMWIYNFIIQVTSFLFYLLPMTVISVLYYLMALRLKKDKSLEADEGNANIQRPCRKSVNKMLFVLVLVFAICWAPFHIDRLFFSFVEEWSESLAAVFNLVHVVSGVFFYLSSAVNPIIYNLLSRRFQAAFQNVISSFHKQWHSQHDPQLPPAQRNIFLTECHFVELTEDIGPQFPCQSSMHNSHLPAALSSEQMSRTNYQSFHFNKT
# T3 sequence (P30550 whole entry): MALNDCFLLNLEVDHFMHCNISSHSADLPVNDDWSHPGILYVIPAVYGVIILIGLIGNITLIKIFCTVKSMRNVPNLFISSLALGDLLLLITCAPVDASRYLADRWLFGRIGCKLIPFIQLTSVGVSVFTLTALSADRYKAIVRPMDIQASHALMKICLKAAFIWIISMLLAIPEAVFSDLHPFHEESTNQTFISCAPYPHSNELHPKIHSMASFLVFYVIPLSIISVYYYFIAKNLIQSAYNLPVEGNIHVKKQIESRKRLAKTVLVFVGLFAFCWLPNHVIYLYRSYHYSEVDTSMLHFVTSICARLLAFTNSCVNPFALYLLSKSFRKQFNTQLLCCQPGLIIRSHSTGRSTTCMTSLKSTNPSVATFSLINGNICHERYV
# T10 sequence (Q9Y5N1 whole entry): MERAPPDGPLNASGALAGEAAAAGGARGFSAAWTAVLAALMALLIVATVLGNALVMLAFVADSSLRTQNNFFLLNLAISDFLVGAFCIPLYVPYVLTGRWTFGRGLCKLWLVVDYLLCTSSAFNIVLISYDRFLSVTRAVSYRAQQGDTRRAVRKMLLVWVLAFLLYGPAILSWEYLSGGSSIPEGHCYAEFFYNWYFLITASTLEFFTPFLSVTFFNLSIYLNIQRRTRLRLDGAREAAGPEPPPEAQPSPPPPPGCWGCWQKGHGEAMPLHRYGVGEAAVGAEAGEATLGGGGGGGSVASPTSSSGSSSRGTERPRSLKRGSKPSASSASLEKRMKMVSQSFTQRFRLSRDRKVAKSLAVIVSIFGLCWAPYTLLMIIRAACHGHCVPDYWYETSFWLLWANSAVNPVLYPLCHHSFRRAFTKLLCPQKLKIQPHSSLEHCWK
# T15 sequence (P35367 whole entry): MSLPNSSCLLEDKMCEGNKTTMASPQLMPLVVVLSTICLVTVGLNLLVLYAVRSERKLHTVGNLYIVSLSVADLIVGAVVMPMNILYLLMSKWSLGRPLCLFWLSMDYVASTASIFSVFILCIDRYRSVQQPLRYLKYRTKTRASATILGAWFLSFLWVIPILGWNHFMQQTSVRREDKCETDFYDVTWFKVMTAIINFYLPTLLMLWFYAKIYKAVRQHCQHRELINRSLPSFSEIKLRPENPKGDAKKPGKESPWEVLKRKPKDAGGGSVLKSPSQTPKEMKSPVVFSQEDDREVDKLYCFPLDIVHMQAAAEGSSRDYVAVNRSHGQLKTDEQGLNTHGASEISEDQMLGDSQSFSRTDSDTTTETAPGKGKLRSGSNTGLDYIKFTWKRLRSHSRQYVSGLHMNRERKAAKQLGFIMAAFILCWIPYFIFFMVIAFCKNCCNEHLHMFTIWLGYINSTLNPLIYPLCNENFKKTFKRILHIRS
# T17 sequence (P21452 whole entry): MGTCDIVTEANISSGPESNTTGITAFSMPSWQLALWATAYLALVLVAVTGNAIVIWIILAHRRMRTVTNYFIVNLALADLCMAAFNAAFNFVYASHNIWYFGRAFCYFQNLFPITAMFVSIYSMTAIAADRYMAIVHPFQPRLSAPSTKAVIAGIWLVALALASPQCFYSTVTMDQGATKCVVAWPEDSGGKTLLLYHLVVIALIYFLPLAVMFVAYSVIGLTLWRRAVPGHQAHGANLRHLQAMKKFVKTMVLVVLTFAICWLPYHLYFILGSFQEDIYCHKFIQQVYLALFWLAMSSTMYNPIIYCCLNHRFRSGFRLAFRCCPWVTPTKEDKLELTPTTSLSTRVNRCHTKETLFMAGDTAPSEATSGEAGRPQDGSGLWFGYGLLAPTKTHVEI
# T5 sequence (P51679 whole entry): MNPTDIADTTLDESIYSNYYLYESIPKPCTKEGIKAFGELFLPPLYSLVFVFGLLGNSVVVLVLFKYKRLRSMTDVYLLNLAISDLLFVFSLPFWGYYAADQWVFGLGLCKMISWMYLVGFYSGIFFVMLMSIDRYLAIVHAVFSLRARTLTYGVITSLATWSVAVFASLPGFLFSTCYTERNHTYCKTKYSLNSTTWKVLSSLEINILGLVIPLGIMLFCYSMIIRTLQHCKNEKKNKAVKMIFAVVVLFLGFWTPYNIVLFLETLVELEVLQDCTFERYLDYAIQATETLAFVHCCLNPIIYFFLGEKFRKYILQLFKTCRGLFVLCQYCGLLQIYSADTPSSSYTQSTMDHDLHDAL
# T7 sequence (P46098 24-478): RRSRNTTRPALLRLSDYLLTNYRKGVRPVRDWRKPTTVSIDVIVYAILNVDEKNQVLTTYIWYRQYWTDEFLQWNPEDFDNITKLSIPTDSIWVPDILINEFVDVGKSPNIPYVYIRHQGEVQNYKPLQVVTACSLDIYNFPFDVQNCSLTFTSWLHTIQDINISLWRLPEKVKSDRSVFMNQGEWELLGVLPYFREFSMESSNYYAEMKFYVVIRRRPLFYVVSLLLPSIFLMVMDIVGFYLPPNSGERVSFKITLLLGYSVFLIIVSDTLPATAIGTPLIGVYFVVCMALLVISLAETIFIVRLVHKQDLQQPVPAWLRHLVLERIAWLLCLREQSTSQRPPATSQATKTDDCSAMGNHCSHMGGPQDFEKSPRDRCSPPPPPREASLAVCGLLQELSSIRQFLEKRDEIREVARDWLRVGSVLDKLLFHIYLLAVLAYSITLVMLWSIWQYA
# T2 sequence (P47211 whole entry): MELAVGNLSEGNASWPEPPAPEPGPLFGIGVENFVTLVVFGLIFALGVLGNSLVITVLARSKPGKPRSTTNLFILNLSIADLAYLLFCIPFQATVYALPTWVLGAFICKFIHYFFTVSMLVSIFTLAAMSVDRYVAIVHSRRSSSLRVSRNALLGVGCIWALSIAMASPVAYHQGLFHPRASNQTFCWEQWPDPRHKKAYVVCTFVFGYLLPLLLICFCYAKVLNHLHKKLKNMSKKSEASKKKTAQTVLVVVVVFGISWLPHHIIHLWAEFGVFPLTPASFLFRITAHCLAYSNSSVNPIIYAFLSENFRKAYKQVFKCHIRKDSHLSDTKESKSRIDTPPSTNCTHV
smiles,measurement,setting,value
"OC[C@H]1O[C@@H](n2cnc3c(NCc4ccc(O)cc4)ncnc32)[C@H](O)[C@@H]1O [T1-11, N ^6-(4-hydroxybenzyl)adenine riboside]",inhibition at 10 µM,[1],2%
same,% Inhibition,[2],3%
same,inhibition at 10 µM,[3],0%
same,inhibition at 10 µM,[4],3%
same,inhibition at 10 µM,[5],3%
same,% Inhibition,[6],10%
same,inhibition at 10 µM,[7],5%
same,inhibition at 10 µM,[8],-8%
same,% Inhibition,[9],0%
same,inhibition at 10 µM,[10],5%
same,inhibition at 10 µM,[11],1%
same,inhibition at 10 µM,[12],3%
same,% Inhibition,[13],1%
same,inhibition at 10 µM,[14],4%
same,inhibition at 10 µM,[15],-5%
same,Apoptosis (annexin V-FITC),[16],rescued serum-deprived PC12 cells from apoptosis
same,inhibition at 10 µM,[17],5%
same,inhibition at 10 µM,[18],-3%
same,% Inhibition,[19],26%
same,inhibition at 10 µM,"[20]; 10 μM T1-11, n 2",58%
same,IC50,[20]; [26],4.66 µM
same,Ki,[20]; [26],2.62 µM
same,inhibition at 10 µM,[21],1%
same,% Inhibition,[22],6%
same,GTP binding compared to 2-Cl-IB-MECA (3 µM),[23]; 100 µM T1-11,less than 50%
same,Function,"[23]; A3 adenosine receptor, GTPγS binding, n.s. = not significant",n.s.
same,inhibition at 10 µM,[24],3%
same,inhibition at 10 µM,[25],-4%
